# Data: patent publication US12545659B2, “IRAK degraders and uses thereof” (Kymera Therapeutics, Inc., priority 2019, dated 2026)
# Molecular target: T1, IRAK4 (Homo sapiens, UniProt Q9NWZ3)
# T1 construct: endogenous in cells; host or cells: OCI-LY10
# T1 sequence (Q9NWZ3 1-460): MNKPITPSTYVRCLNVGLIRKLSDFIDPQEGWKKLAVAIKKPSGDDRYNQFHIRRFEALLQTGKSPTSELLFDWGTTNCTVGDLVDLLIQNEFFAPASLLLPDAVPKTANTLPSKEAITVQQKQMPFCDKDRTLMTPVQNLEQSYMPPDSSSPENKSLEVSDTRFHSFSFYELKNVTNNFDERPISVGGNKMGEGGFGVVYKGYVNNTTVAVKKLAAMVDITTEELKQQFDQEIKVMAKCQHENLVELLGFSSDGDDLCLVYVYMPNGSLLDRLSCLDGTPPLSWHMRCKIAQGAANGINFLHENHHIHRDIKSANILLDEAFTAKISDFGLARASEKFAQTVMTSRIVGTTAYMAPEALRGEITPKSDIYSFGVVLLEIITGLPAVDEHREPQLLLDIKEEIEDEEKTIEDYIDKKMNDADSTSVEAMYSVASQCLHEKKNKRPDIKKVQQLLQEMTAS
# Test: IRAK4 MSD Degradation in OCI-LY10
# Type: cell-based
# Details: OCI-LY10 cells, 4 hrs incubation, read-out: IRAK4 degradation in OCI-LY10 at 4 hrs: DC50
# Procedure, shortened: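 IRAK4 remaining in lysates was read by Meso Scale electrochemiluminescence sandwich (2H9 capture, Y279 plus SULFO-TAG detection). Cells were exposed 4 to 24 h at 37 °C to eight 3-fold dilutions from 1 to 10 μM final top; three-parameter logistic fit gave DC50.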
row,DC50 [nM],Compound
1,< 50,Cn1c(=O)n(C2CCC(=O)NC2=O)c2cccc(C[C@H]3C[C@H](OC4CCN(C[C@H]5CC[C@H](n6cc7cc(NC(=O)c8cccc(C(F)(F)F)n8)c(C(C)(C)O)cc7n6)CC5)CC4)C3)c21 (stereo partly shown) [I-203]
2,50 to 100,Cn1c(=O)n(C2CCC(=O)NC2=O)c2cccc(CCC3CC4(CCN(C[C@H]5CC[C@H](n6cc7cc(NC(=O)c8cccc(OC(F)(F)F)n8)c(C(C)(C)O)cc7n6)CC5)CC4)C3)c21 (stereo partly shown) [I-204]
3,50 to 100,CN(CCCO[C@H]1C[C@H](Cc2cccc3c2n(C)c(=O)n3C2CCC(=O)NC2=O)C1)C[C@H]1CC[C@H](n2cc3cc(NC(=O)c4cccc(C(F)(F)F)n4)c(C(F)F)cc3n2)CC1 (stereo partly shown) [I-205]
4,< 50,Cc1nc(C(=O)Nc2cc3cn([C@H]4CC[C@H](CN5CCC6(CC5)CC(CCc5cccc7c5n(C)c(=O)n7C5CCC(=O)NC5=O)C6)CC4)nc3cc2C(C)(C)O)ccc1F (stereo partly shown) [I-206]
5,50 to 100,COc1cccc(C(=O)Nc2cc3cn([C@H]4CC[C@H](CN5CCC6(CC5)CC(CCc5cccc7c5n(C)c(=O)n7C5CCC(=O)NC5=O)C6)CC4)nc3cc2C(C)(C)O)n1 (stereo partly shown) [I-207]
6,50 to 100,CN(C[C@H]1CC[C@H](n2cc3cc(NC(=O)c4cccc(C(F)(F)F)n4)c(N4CCOCC4)cc3n2)CC1)C1CCN(Cc2cccc3c2n(C)c(=O)n3C2CCC(=O)NC2=O)CC1 (stereo partly shown) [I-214]
7,< 50,Cn1c(=O)n(C2CCC(=O)NC2=O)c2cccc(C3CCN(C[C@H]4CC[C@H](n5cc6cc(NC(=O)c7cccc(C(F)(F)F)n7)c(C(C)(C)O)cc6n5)CC4)CC3)c21 (stereo partly shown) [I-226]
8,< 50,"CN(CCCC#Cc1cccc2c1n(C)c(=O)n2C1CCC(=O)NC1=O)C[C@H]1CC[C@H](n2cc3cc(NC(=O)c4cccc(C(F)(F)F)n4)c(C(C)(C)O)cc3n2)CC1 (stereo partly shown) [I-228, N-(2-((1r,4r)-4-(((5-(1-(2,6-dioxopiperidin-3-yl)-3-methyl-2-oxo-2,3-dihydro-1H-benzo[d]imidazol-4-yl)pent-4-yn-1-yl)(methyl)amino)methyl)cyclohexyl)-6-(2-hydroxypropan-2-yl)-2H-indazol-5-yl)-6-(trifluoromethyl)picolinamide]"
9,< 50,Cn1c(=O)n(C2CCC(=O)NC2=O)c2cccc(CC3CCN(C[C@H]4CC[C@H](n5cc6cc(NC(=O)c7cccc(C(F)(F)F)n7)c(C(C)(C)O)cc6n5)CC4)CC3)c21 (stereo partly shown) [I-229]
10,< 50,CN(C[C@H]1CC[C@H](n2cc3cc(NC(=O)c4cccc(C(C)(C)C)n4)c(C(C)(C)O)cc3n2)CC1)C1CCN(Cc2cccc3c2n(C)c(=O)n3C2CCC(=O)NC2=O)CC1 (stereo partly shown) [I-235]
11,< 50,Cn1c(=O)n(C2CCC(=O)NC2=O)c2cccc(CCN3CC4(CCN(C(=O)[C@H]5CC[C@H](n6cc7cc(NC(=O)c8cccc(C(F)(F)F)n8)c(C(C)(C)O)cc7n6)CC5)CC4)C3)c21 (stereo partly shown) [I-239]
12,< 50,COc1cc2nn([C@H]3CC[C@H](CN4CCC(CCc5cccc6c5n(C)c(=O)n6C5CCC(=O)NC5=O)CC4)CC3)cc2cc1NC(=O)c1cccc(C(F)(F)F)n1 (stereo partly shown) [I-242]

# Same assay, conditions: OCI-LY10 cells, 24 hrs incubation, read-out: IRAK4 degradation in OCI-LY10 at 24 hrs: DC50
row,DC50 [nM],Compound
1,500 to 1000,"C[C@]1(CN2CCC3(CC2)CC(CCNc2cccc4c2C(=O)N(C2CCC(=O)NC2=O)C4=O)C3)Cc2cc(NC(=O)c3cnn4cccnc34)c(N3CCOCC3)cc2O1 (stereo partly drawn) [I-196, N-[(2R)-2-[[2-[2-[[2-(2,6-dioxo-3-piperidyl)-1,3-dioxo-isoindolin-4-yl]amino]ethyl]-7-azaspiro[3.5]nonan-7-yl]methyl]-2-methyl-6-morpholino-3H-benzofuran-5-yl]pyrazolo[1,5-a]pyrimidine-3-carboxamide]"
2,500 to 1000,CC(C)(O)c1cc2nc(N3CCC(CN4CCC5(CC4)CC(CCNc4cccc6c4C(=O)N(C4CCC(=O)NC4=O)C6=O)C5)CC3)oc2cc1NC(=O)c1cccc(C(F)(F)F)n1 (stereo not shown) [I-197]
3,50 to 100,COc1cc2nc([C@H]3CC[C@H](CN4CC5(CC(CCNc6cccc7c6C(=O)N(C6CCC(=O)NC6=O)C7=O)C5)C4)CC3)oc2cc1NC(=O)c1cccc(C(C)(F)F)n1 (stereo partly shown) [I-198]
4,500 to 1000,O=C1CCC(N2C(=O)c3cccc(NCCC4CC5(CCN(C[C@H]6CC[C@H](c7nc8cc(N9CCOCC9)c(NC(=O)c9cccc(C(F)(F)F)n9)cc8o7)CC6)CC5)C4)c3C2=O)C(=O)N1 (stereo partly shown) [I-199]
5,50 to 100,CC(F)(F)c1cccc(C(=O)Nc2cc3cn([C@H]4CC[C@H](CN5CC6(CC(CCNc7cccc8c7C(=O)N(C7CCC(=O)NC7=O)C8=O)C6)C5)CC4)nc3cc2OC2CC2)n1 (stereo partly shown) [I-200]
6,50 to 100,CC(C)Oc1cc2nn([C@H]3CC[C@H](CN4CCC5(CC4)CC(Nc4cccc6c4C(=O)N(C4CCC(=O)NC4=O)C6=O)C5)CC3)cc2cc1NC(=O)c1cccc(C(F)(F)F)n1 (stereo partly shown) [I-202]
7,100 to 500,COc1cc2nn([C@H]3CC[C@H](CN4CCC5(CC4)CC(CCNc4cccc6c4C(=O)N(C4CCC(=O)NC4=O)C6=O)C5)CC3)cc2cc1NC(=O)c1nc(C(F)(F)F)cs1 (stereo partly shown) [I-208]
8,< 50,COc1cc2nn([C@H]3CC[C@H](CN4CCC5(CC4)CC(CNc4cccc6c4C(=O)N(C4CCC(=O)NC4=O)C6=O)C5)CC3)cc2cc1NC(=O)c1cccc(C(F)F)n1 (stereo partly shown) [I-209]
9,50 to 100,COc1cc2nn([C@H]3CC[C@H](CN(C)[C@H]4CC[C@H](CNc5cccc6c5C(=O)N(C5CCC(=O)NC5=O)C6=O)CC4)CC3)cc2cc1NC(=O)c1cccc(C(F)(F)F)n1 (stereo partly shown) [I-210]
10,< 50,COc1cc2nn([C@H]3CC[C@H](CN(C)[C@H]4CC[C@H](Nc5cccc6c5C(=O)N(C5CCC(=O)NC5=O)C6=O)CC4)CC3)cc2cc1NC(=O)c1cccc(C)n1 (stereo partly shown) [I-211]
11,100 to 500,CCOc1cc2nn([C@H]3CC[C@H](CN4CCC5(CC4)CC(CCNc4cccc6c4C(=O)N(C4CCC(=O)NC4=O)C6=O)C5)CC3)cc2cc1NC(=O)c1cccc(C(F)(F)F)n1 (stereo partly shown) [I-212]
12,100 to 500,COc1cc2nn([C@H]3CC[C@H](CN(C)CCCO[C@H]4C[C@@H](Nc5cccc6c5C(=O)N(C5CCC(=O)NC5=O)C6=O)C4)CC3)cc2cc1NC(=O)c1cccc(C(F)(F)F)n1 (stereo partly shown) [I-213]
13,50 to 100,COc1cc2nn([C@H]3CC[C@H](CN4CCC5(CC4)CC(CNc4cccc6c4C(=O)N(C4CCC(=O)NC4=O)C6=O)C5)CC3)cc2cc1NC(=O)c1cccc(-c2cnn(C)c2)n1 (stereo partly shown) [I-218]
14,50 to 100,COc1cc2nn([C@H]3CC[C@H](CN(C)C4CCC5(CC4)CC(CNc4cccc6c4C(=O)N(C4CCC(=O)NC4=O)C6=O)C5)CC3)cc2cc1NC(=O)c1cccc(-c2cnn(C)c2)n1 (stereo partly shown) [I-219]
15,50 to 100,COc1cc2nn([C@H]3CC[C@H](CN4CCC5(CC4)CCN(c4cccc6c4C(=O)N(C4CCC(=O)NC4=O)C6=O)CC5)CC3)cc2cc1NC(=O)c1cccc(C(F)(F)F)n1 (stereo partly shown) [I-220]
16,< 50,CN(CCCO[C@H]1C[C@H](Nc2cccc3c2C(=O)N(C2CCC(=O)NC2=O)C3=O)C1)C[C@H]1CC[C@H](n2cc3cc(NC(=O)c4coc(-c5ccnc(NCC6CC6)c5)n4)c(C(C)(C)O)cc3n2)CC1 (stereo partly shown) [I-221]
17,50 to 100,COc1cc2nn([C@H]3CC[C@H](CN4CCC5(CC4)CC(CNc4ccc6c(c4)C(=O)N(C4CCC(=O)NC4=O)C6=O)C5)CC3)cc2cc1NC(=O)c1cccc(C(F)(F)F)n1 (stereo partly shown) [I-222]
18,50 to 100,COc1cc2nn([C@H]3CC[C@H](CN(C)C4CCC5(CC4)CC(Nc4cccc6c4C(=O)N(C4CCC(=O)NC4=O)C6=O)C5)CC3)cc2cc1NC(=O)c1cccc(C(F)(F)F)n1 (stereo partly shown) [I-223]
19,< 50,COc1cc2nn([C@H]3CC[C@H](CN4CCC5(CC4)CC(Nc4cccc6c4C(=O)N(C4CCC(=O)NC4=O)C6=O)C5)CC3)cc2cc1NC(=O)c1ccc(F)c(C)n1 (stereo partly shown) [I-224]
20,500 to 1000,CN(CCCO[C@H]1C[C@H](Nc2cccc3c2C(=O)N(C2CCC(=O)NC2=O)C3=O)C1)C[C@H]1CC[C@H](n2cc3cc(N(C)C(=O)c4cccc(C(F)(F)F)n4)c(C(C)(C)O)cc3n2)CC1 (stereo partly shown) [I-225]
21,50 to 100,COc1cc2nn([C@H]3CC[C@H](CN4CCO[C@@H](CCCNc5cccc6c5C(=O)N(C5CCC(=O)NC5=O)C6=O)C4)CC3)cc2cc1NC(=O)c1cccc(C(F)(F)F)n1 (stereo partly shown) [I-227]
22,50 to 100,COc1cc2nn([C@H]3CC[C@H](CN(C)CCCO[C@H]4C[C@H](Nc5cccc6c5C(=O)N(C5CCC(=O)NC5=O)C6=O)C4)CC3)cc2cc1NC(=O)c1cccc(C(F)(F)F)n1 (stereo partly shown) [I-230]
23,50 to 100,COc1cc2nn([C@H]3CC[C@H](CN4CCC(COCCCNc5cccc6c5C(=O)N(C5CCC(=O)NC5=O)C6=O)CC4)CC3)cc2cc1NC(=O)c1cccc(C(C)(C)F)n1 (stereo partly shown) [I-231]
24,50 to 100,COc1cc2nn([C@H]3CC[C@H](CN4CCC5(CC4)CC(CNc4cccc6c4C(=O)N(C4CCC(=O)NC4=O)C6=O)C5)CC3)cc2cc1NC(=O)c1cccc(C(C)(C)F)n1 (stereo partly shown) [I-232]
25,< 50,CC(C)(O)c1cc2nn([C@H]3CC[C@H](CN4CCO[C@@H](CCCNc5cccc6c5C(=O)N(C5CCC(=O)NC5=O)C6=O)C4)CC3)cc2cc1NC(=O)c1cccc(C(F)(F)F)n1 (stereo partly shown) [I-233]
26,50 to 100,CC(C)(O)c1cc2nn([C@H]3CC[C@H](CN4CCC(O[C@H]5C[C@H](Nc6cccc7c6C(=O)N(C6CCC(=O)NC6=O)C7=O)C5)CC4)CC3)cc2cc1NC(=O)c1cccc(C(C)(C)F)n1 (stereo partly shown) [I-234]
27,50 to 100,CN(C[C@H]1CC[C@H](n2cc3cc(NC(=O)c4cccc(C(C)(C)C)n4)c(C(C)(C)O)cc3n2)CC1)[C@H]1CC[C@H](Nc2cccc3c2C(=O)N(C2CCC(=O)NC2=O)C3=O)CC1 (stereo partly shown) [I-236]
28,< 50,CN(C[C@H]1CC[C@H](n2cc3cc(NC(=O)c4cccc(C(F)(F)F)n4)c(C(C)(C)O)cc3n2)CC1)C1CCC2(CC1)CC(Nc1cccc3c1C(=O)N(C1CCC(=O)NC1=O)C3=O)C2 (stereo partly shown) [I-238]
